Results reported in PubChem BioAssay AID1963847 (Molecular Pharmacology Branch, DTP, NCI, 2024).

Test system: 415267-285-R-J2-PDC complex spheroid viability
Assay: Anticancer human tumor 415267-285-R-J2-PDC patient-derived breast carcinoma cell line growth inhibition [POLQ]
Conditions: for IC50: curve of first compound; for viability, T/C: stronger effect = lower value
In short: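 Complex spheroid viability model combining PDC tumour cells with endothelial (HUVEC) and MSC stromal cells. Novobiocin, ART-558 or RP6685 were tested singly and in combination with standard and investigational anticancer drugs. Each was titrated in half-log steps from near clinical Cmax, or from 10 microM where Cmax was unknown.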

[1] = second compound 0.0316 µM, first compound 0.0316 µM
[2] = second compound 0.0316 µM, first compound 0.1 µM
[3] = second compound 0.0316 µM, first compound 0.316 µM
[4] = second compound 0.0316 µM, first compound 1 µM
[5] = second compound 0.0316 µM, first compound 3.16 µM
[6] = second compound 0.0316 µM, first compound 10 µM
[7] = second compound 0.1 µM, first compound 0.0316 µM
[8] = second compound 0.1 µM, first compound 0.1 µM
[9] = second compound 0.1 µM, first compound 0.316 µM
[10] = second compound 0.1 µM, first compound 1 µM
[11] = second compound 0.1 µM, first compound 3.16 µM
[12] = second compound 0.1 µM, first compound 10 µM
[13] = second compound 0.316 µM, first compound 0.0316 µM
[14] = second compound 0.316 µM, first compound 0.1 µM
[15] = second compound 0.316 µM, first compound 0.316 µM
[16] = second compound 0.316 µM, first compound 1 µM
[17] = second compound 0.316 µM, first compound 3.16 µM
[18] = second compound 0.316 µM, first compound 10 µM
[19] = second compound 1 µM, first compound 0.0316 µM
[20] = second compound 1 µM, first compound 0.1 µM
[21] = second compound 1 µM, first compound 0.316 µM
[22] = second compound 1 µM, first compound 1 µM
[23] = second compound 1 µM, first compound 3.16 µM
[24] = second compound 1 µM, first compound 10 µM
[25] = second compound 3.16 µM, first compound 0.0316 µM
[26] = second compound 3.16 µM, first compound 0.1 µM
[27] = second compound 3.16 µM, first compound 0.316 µM
[28] = second compound 3.16 µM, first compound 1 µM
[29] = second compound 3.16 µM, first compound 3.16 µM
[30] = second compound 3.16 µM, first compound 10 µM
[31] = second compound 10 µM, first compound 0.0316 µM
[32] = second compound 10 µM, first compound 0.1 µM
[33] = second compound 10 µM, first compound 0.316 µM
[34] = second compound 10 µM, first compound 1 µM
[35] = second compound 10 µM, first compound 3.16 µM
[36] = second compound 10 µM, first compound 10 µM
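Also: spheroids exposed to compounds for one week before readout.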
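For viability, T/C in this document: luminescence used as stand-in measure of viable cells; 100% = DMSO vehicle control viability.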

With `COc1ccc([C@@H](O)c2cc(-c3ncnc4cc(N5CCOCC5)ccc34)c(F)cc2Cl)nn1` + COC1C(OC(N)=O)C(O)C(Oc2ccc3c(O)c(NC(=O)c4ccc(O)c(CC=C(C)C)c4)c(=O)oc3c2C)OC1(C)C the IC50 (second compound 0.0316 µM) was 8630 nM, the IC50 (second compound 0.1 µM) was 8030 nM and the IC50 (second compound 0.316 µM) was 7090 nM. For the same molecule, the IC50 (second compound 1 µM) was 9180 nM, the IC50 (second compound 3.16 µM) was 8150 nM and the IC50 (second compound 10 µM) was 9750 nM. It also gave a viability, T/C [1] of 104%, a viability, T/C [2] of 92.5% and a viability, T/C [3] of 97.9%. It also gave a viability, T/C [4] of 89%, a viability, T/C [5] of 78.4% and a viability, T/C [6] of 45.3%. The viability, T/C [7] was 95.3%, the viability, T/C [8] was 104% and the viability, T/C [9] was 97.9%. It also gave a viability, T/C [10] of 106%, a viability, T/C [11] of 99.5% and a viability, T/C [12] of 38.3%. It also gave a viability, T/C [13] of 101%, a viability, T/C [14] of 98% and a viability, T/C [15] of 101%. It also gave a viability, T/C [16] of 87.7%, a viability, T/C [17] of 77.9% and a viability, T/C [18] of 38.3%. For the same molecule, the viability, T/C [19] was 94.3%, the viability, T/C [20] was 97.2% and the viability, T/C [21] was 97.1%. It also gave a viability, T/C [22] of 100%, a viability, T/C [23] of 76.2% and a viability, T/C [24] of 48%. The viability, T/C [25] was 105%, the viability, T/C [26] was 108% and the viability, T/C [27] was 97.1%. For the same molecule, the viability, T/C [28] was 103%, the viability, T/C [29] was 79.7% and the viability, T/C [30] was 43.5%. For the same molecule, the viability, T/C [31] was 102%, the viability, T/C [32] was 97.8% and the viability, T/C [33] was 98%. The viability, T/C [34] was 96.3%, the viability, T/C [35] was 90.9% and the viability, T/C [36] was 48.8%.

`CCc1c2c(nc3ccc(O)cc13)-c1cc3c(c(=O)n1C2)COC(=O)[C@]3(O)CC` + Nc1ccc(C#CCN(C(=O)Cc2ncc(C(F)(F)F)cc2C(F)(F)F)c2ccc(F)cc2)nn1 showed an IC50 (second compound 0.0316 µM) of 3.71 nM, an IC50 (second compound 0.1 µM) of 4.23 nM and an IC50 (second compound 0.316 µM) of 3.49 nM. The IC50 (second compound 1 µM) was < 3.16 nM, the IC50 (second compound 3.16 µM) was < 3.16 nM and the IC50 (second compound 10 µM) was < 3.16 nM. It also gave a viability, T/C (second compound 0.0316 µM, first compound 0.00316 µM) of 56.2%, a viability, T/C (second compound 0.0316 µM, first compound 0.01 µM) of 12.2% and a viability, T/C [1] of 4.64%. The viability, T/C [2] was 3.13%, the viability, T/C [3] was 1.82% and the viability, T/C [4] was 1.11%. For the same molecule, the viability, T/C (second compound 0.1 µM, first compound 0.00316 µM) was 63.5%, the viability, T/C (second compound 0.1 µM, first compound 0.01 µM) was 10.5% and the viability, T/C [7] was 4.81%. It also gave a viability, T/C [8] of 3.2%, a viability, T/C [9] of 2.14% and a viability, T/C [10] of 1.01%. For the same molecule, the viability, T/C (second compound 0.316 µM, first compound 0.00316 µM) was 53.6%, the viability, T/C (second compound 0.316 µM, first compound 0.01 µM) was 11.3% and the viability, T/C [13] was 4.02%. The viability, T/C [14] was 2.64%, the viability, T/C [15] was 2.39% and the viability, T/C [16] was 1.12%. It also gave a viability, T/C (second compound 1 µM, first compound 0.00316 µM) of 46.9%, a viability, T/C (second compound 1 µM, first compound 0.01 µM) of 9.28% and a viability, T/C [19] of 4.2%. The viability, T/C [20] was 3.14%, the viability, T/C [21] was 2.27% and the viability, T/C [22] was 0.96%. It also gave a viability, T/C (second compound 3.16 µM, first compound 0.00316 µM) of 42.7%, a viability, T/C (second compound 3.16 µM, first compound 0.01 µM) of 9.28% and a viability, T/C [25] of 5.9%. The viability, T/C [26] was 3.54%, the viability, T/C [27] was 2.55% and the viability, T/C [28] was 0.98%. It also gave a viability, T/C (second compound 10 µM, first compound 0.00316 µM) of 32.5%, a viability, T/C (second compound 10 µM, first compound 0.01 µM) of 9.81% and a viability, T/C [31] of 4.81%. It also gave a viability, T/C [32] of 2.88%, a viability, T/C [33] of 2.6% and a viability, T/C [34] of 1.04%.

`CC1COCCN1c1cc(C2(S(C)(=N)=O)CC2)nc(-c2ccnc3[nH]ccc23)n1` (stereo not drawn) + Cc1cccc(N(C)C(=O)C2C(O)CCN2c2nc(C)cc(C(F)(F)F)c2C#N)c1 showed an IC50 (second compound 0.0316 µM) of 488 nM, an IC50 (second compound 0.1 µM) of 447 nM and an IC50 (second compound 0.316 µM) of 441 nM. It also gave an IC50 (second compound 1 µM) of 473 nM, an IC50 (second compound 3.16 µM) of 422 nM and an IC50 (second compound 10 µM) of 501 nM. The viability, T/C [1] was 88.4%, the viability, T/C [2] was 102% and the viability, T/C [3] was 70.3%. For the same molecule, the viability, T/C [4] was 15.8%, the viability, T/C [5] was 6.51% and the viability, T/C [6] was 5.21%. The viability, T/C [7] was 92.8%, the viability, T/C [8] was 96.3% and the viability, T/C [9] was 65%. The viability, T/C [10] was 14.3%, the viability, T/C [11] was 5.97% and the viability, T/C [12] was 4.58%. For the same molecule, the viability, T/C [13] was 102%, the viability, T/C [14] was 98.7% and the viability, T/C [15] was 62.8%. For the same molecule, the viability, T/C [16] was 17.7%, the viability, T/C [17] was 6.78% and the viability, T/C [18] was 4.96%. For the same molecule, the viability, T/C [19] was 106%, the viability, T/C [20] was 107% and the viability, T/C [21] was 70.2%. The viability, T/C [22] was 12.4%, the viability, T/C [23] was 6.47% and the viability, T/C [24] was 5.16%. The viability, T/C [25] was 94.2%, the viability, T/C [26] was 94.8% and the viability, T/C [27] was 62.4%. It also gave a viability, T/C [28] of 12.5%, a viability, T/C [29] of 6.4% and a viability, T/C [30] of 5.39%. The viability, T/C [31] was 91.6%, the viability, T/C [32] was 102% and the viability, T/C [33] was 72.7%. For the same molecule, the viability, T/C [34] was 15.7%, the viability, T/C [35] was 6.3% and the viability, T/C [36] was 4.96%.

In the case of `COc1cccc2c1C(=O)c1c(O)c3c(c(O)c1C2=O)CC(O)(C(=O)CO)CC3OC1CC(N)C(O)C(C)O1` (stereo not drawn) + Nc1ccc(C#CCN(C(=O)Cc2ncc(C(F)(F)F)cc2C(F)(F)F)c2ccc(F)cc2)nn1, the IC50 (second compound 0.0316 µM) is reported as 55.7 nM, the IC50 (second compound 0.1 µM) is reported as 54.6 nM and the IC50 (second compound 0.316 µM) is reported as 57.9 nM. For the same molecule, the IC50 (second compound 1 µM) was 50 nM, the IC50 (second compound 3.16 µM) was 49.5 nM and the IC50 (second compound 10 µM) was < 31.6 nM. The viability, T/C [1] was 81.1%, the viability, T/C [2] was 18% and the viability, T/C [3] was 4.33%. For the same molecule, the viability, T/C [4] was 0.75%, the viability, T/C [5] was 1.29% and the viability, T/C [6] was 3.55%. The viability, T/C [7] was 80.9%, the viability, T/C [8] was 15.8% and the viability, T/C [9] was 3.25%. For the same molecule, the viability, T/C [10] was 0.65%, the viability, T/C [11] was 0.93% and the viability, T/C [12] was 3.6%. The viability, T/C [13] was 80.6%, the viability, T/C [14] was 22.5% and the viability, T/C [15] was 3.28%. It also gave a viability, T/C [16] of 0.8%, a viability, T/C [17] of 1.04% and a viability, T/C [18] of 3.39%. It also gave a viability, T/C [19] of 76.9%, a viability, T/C [20] of 9.51% and a viability, T/C [21] of 3.66%. It also gave a viability, T/C [22] of 0.83%, a viability, T/C [23] of 1.07% and a viability, T/C [24] of 4.04%. It also gave a viability, T/C [25] of 73.7%, a viability, T/C [26] of 13% and a viability, T/C [27] of 4.28%. For the same molecule, the viability, T/C [28] was 1.36%, the viability, T/C [29] was 1.16% and the viability, T/C [30] was 3.92%. It also gave a viability, T/C [31] of 49.4%, a viability, T/C [32] of 9.57% and a viability, T/C [33] of 4.23%. For the same molecule, the viability, T/C [34] was 1.37%, the viability, T/C [35] was 1.54% and the viability, T/C [36] was 4.35%.
